Article PMC9832505, “Cell Adhesion Motif-Functionalized Lipopeptides: Nanostructure and Selective Myoblast Cytocompatibility” (Biomacromolecules, 2022)
Residues, ends and D or L forms follow the SMILES beside them.

Legend:
L929 murine fibroblast = experiment: MTT cytotoxicity assay on L929 fibroblasts; type: cell-based, mouse; details: for cell survival: 1 wt %; for cell viability: 0.1 wt %
Experimental: (§1) L929 murine fibroblast and C2C12 immortalized mouse myoblast cell lines (both from ECACC General Cell Collection) were grown in Dulbecco’s modified Eagle’s medium (DMEM) supplemented with 10% fetal bovine serum, 20 mM HEPES, and 1% GlutaMAX. The cells were maintained at pH 7.4, 37 °C, and 5% CO2 in 25 cm^2 cell culture flasks.
(§2) Cells were seeded in 96-well plates at a density of 0.6 × 10^4 cells per well. Cells were then treated with peptides dissolved in the medium at the concentrations of 0.1 and 1 × 10^–4 wt %. To test cytocompatibility in the presence of the hydrogels, wells were filled with 1 wt % mG and pG hydrogels before seeding. At the end of the treatment (after 24 or 72 h), cell viability was assessed using an MTT [3-(4, 5-dimethylthiazolyl-2)-2, 5-diphenyltetrazolium bromide] assay. In brief, after the removal of the culture medium, MTT, dissolved in DMEM at a concentration of 0.5 mg/mL, was added to the cells and incubated for 4 h at 37 °C. The resulting formazan crystals were dissolved by adding dimethyl sulfoxide. Absorbance values of blue formazan were determined at 560 nm using an automatic plate reader. Cell survival was expressed as a percentage of viable cells in the presence of peptides, compared to control cells grown in their absence. The assay was repeated three times, and the results were averaged. Statistical significance was tested using multiple Welch’s t-tests. All analyses were conducted using Prism 7.

[1] = system: C2C12 immortalized mouse myoblast; experiment: MTT cytotoxicity assay on C2C12 myoblasts; type: cell-based; details: for cell viability: 72 h, 0.1 wt %; for tolerance of hydrogels in words: C2C12 on hydrogels (1 wt %), 24 h and 72 h, MTT
Experimental: as §1, §2

[2] = not given; remark: listed apart in the source
[3] = not given; remark: listed apart in the source

| Structure (SMILES) | cell survival (L929 murine fibroblast; 24 h) [%] | cell viability (L929 murine fibroblast; 72 h) [%] | cell survival (L929 murine fibroblast; 72 h) [%] | cell viability [1] [%] | tolerance of hydrogels in words [1] | nanotape mean thickness in hydrogel [nm] | nanotube radius [2] [Å] | fiber mean diameter [3] [nm] |
| --- | --- | --- | --- | --- | --- | --- | --- | --- |
| CCCCCCCCCCCCCC(=O)NCC(=O)NCC(=O)NCC(=O)N[C@@H](CCCNC(=N)N)C(=O)NCC(=O)N[C@@H](CC(=O)O)C(=O)N[C@@H](CO)C(=O)O [mG, C14-GGGRGDS] (HELM PEPTIDE1{[CCCCCCCCCCCCCC(=O)[*:2]].G.G.G.R.G.D.S}$$$$V2.0) | 92.6 ± 8.8 | 30.7 ± 4.7 | 94.6 ± 12.6 | 84.4 ± 9.6 | reasonably well tolerated | 13.6 | – | – |
| CCCCCCCCCCCCCC(=O)N[C@@H](Cc1c[nH]c2ccccc12)C(=O)NCC(=O)NCC(=O)N[C@@H](CCCNC(=N)N)C(=O)NCC(=O)N[C@@H](CC(=O)O)C(=O)N[C@@H](CO)C(=O)O [mW, C14-WGGRGDS] (HELM PEPTIDE1{[CCCCCCCCCCCCCC(=O)[*:2]].W.G.G.R.G.D.S}$$$$V2.0) | – | 28.1 ± 3.1 | – | 72.3 ± 10.2 | – | – | 750 | – |
| CCCCCCCCCCCCCCCC(=O)NCC(=O)NCC(=O)NCC(=O)N[C@@H](CCCNC(=N)N)C(=O)NCC(=O)N[C@@H](CC(=O)O)C(=O)N[C@@H](CO)C(=O)O [pG, C16-GGGRGDS] (HELM PEPTIDE1{[CCCCCCCCCCCCCCCC(=O)[*:2]].G.G.G.R.G.D.S}$$$$V2.0) | – | 31.8 ± 5.1 | – | 86.0 ± 6.8 | reasonably well tolerated | – | – | – |
| CCCCCCCCCCCCCCCC(=O)N[C@@H](Cc1c[nH]c2ccccc12)C(=O)NCC(=O)NCC(=O)N[C@@H](CCCNC(=N)N)C(=O)NCC(=O)N[C@@H](CC(=O)O)C(=O)N[C@@H](CO)C(=O)O [pW, C16-WGGRGDS] (HELM PEPTIDE1{[CCCCCCCCCCCCCCCC(=O)[*:2]].W.G.G.R.G.D.S}$$$$V2.0) | – | 36.3 ± 5.1 | – | 73.3 ± 2.8 | – | – | – | 4 |
